Measured values as given in ChEMBL document CHEMBL1201862, “PubChem BioAssay data set” (2004).
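Each compound was tested at five concentrations against cells in 96-well plates for 48 hours. GI50 is the concentration that inhibits growth by half.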 Active and inactive are the calls of the source. Rule as the data show it: active = GI50 up to about 1.1 µM and inactive = higher.

Experiments:
Test in all cases: growth of human tumour cells (NCI), 48 h
[1] = test system: NCI/ADR-RES
[2] = test system: HCT-116
[3] = test system: SK-MEL-5
[4] = test system: KM12
[5] = test system: CCRF-CEM
[6] = test system: CAKI-1
[7] = test system: A549
[8] = test system: 786-0
[9] = test system: BT-549
[10] = test system: MCF7
[11] = test system: Hs-578T
[12] = test system: T47D
[13] = test system: M14
[14] = test system: EKVX
[15] = test system: OVCAR-4
[16] = test system: U-251
[17] = test system: K562
[18] = test system: MOLT-4
[19] = test system: SK-OV-3
[20] = test system: UACC-257
[21] = test system: NCI-H522
[22] = test system: MDA-N
[23] = test system: HOP-62
[24] = test system: SF-268
[25] = test system: NCI-H226
[26] = test system: HT-29
[27] = test system: MDA-MB-435
[28] = test system: MDA-MB-231
[29] = test system: HCC 2998
[30] = test system: TK-10
[31] = test system: NCI-H460
[32] = test system: RPMI-8226
[33] = test system: SN12C
[34] = test system: IGROV-1
[35] = test system: PC-3
[36] = test system: SK-MEL-2
[37] = test system: SK-MEL-28
[38] = test system: NCI-H23
[39] = test system: SNB-19
[40] = test system: UO-31
[41] = test system: HCT-15
[42] = test system: SR
[43] = test system: COLO 205
[44] = test system: Malme-3M
[45] = test system: OVCAR-3
[46] = test system: SF-295
[47] = test system: ACHN
[48] = test system: OVCAR-8
[49] = test system: SW-620
[50] = test system: LOX IMVI
[51] = test system: OVCAR-5
[52] = test system: SF-539
[53] = test system: SNB-75
[54] = test system: A498
[55] = test system: HL-60
[56] = test system: RXF 393
[57] = test system: UACC-62
[58] = test system: DU-145
[59] = test system: HOP-92

CC1=CC(O)(c2ccccc2)C(N2CCOCC2)N1O (configuration not stated)
GI50 [1]: > 100 µM (inactive)
GI50 [2]: > 100 µM (inactive)
GI50 [3]: > 100 µM (inactive)
GI50 [4]: > 100 µM (inactive)
GI50 [5]: 91.4 µM (inactive)
GI50 [6]: > 100 µM (inactive)
GI50 [7]: > 100 µM (inactive)
GI50 [8]: > 100 µM (inactive)
GI50 [9]: > 100 µM (inactive)
GI50 [10]: > 100 µM (inactive)
GI50 [11]: > 100 µM (inactive)
GI50 [12]: > 100 µM (inactive)
GI50 [13]: > 100 µM (inactive)
GI50 [14]: > 100 µM (inactive)
GI50 [15]: > 100 µM (inactive)
GI50 [16]: > 100 µM (inactive)
GI50 [17]: > 100 µM (inactive)
GI50 [18]: > 100 µM (inactive)
GI50 [19]: > 100 µM (inactive)
GI50 [20]: > 100 µM (inactive)
GI50 [21]: > 100 µM (inactive)
GI50 [22]: > 100 µM (inactive)
GI50 [23]: > 100 µM (inactive)
GI50 [24]: > 100 µM (inactive)
GI50 [25]: > 100 µM (inactive)
GI50 [26]: > 100 µM (inactive)
GI50 [27]: > 100 µM (inactive)
GI50 [28]: > 100 µM (inactive)
GI50 [29]: > 100 µM (inactive)
GI50 [30]: > 100 µM (inactive)
GI50 [31]: > 100 µM (inactive)
GI50 [32]: > 100 µM (inactive)
GI50 [33]: > 100 µM (inactive)
GI50 [34]: > 100 µM (inactive)
GI50 [35]: > 100 µM (inactive)
GI50 [36]: 81.1 µM (inactive)
GI50 [37]: > 100 µM (inactive)
GI50 [38]: > 100 µM (inactive)
GI50 [39]: > 100 µM (inactive)
GI50 [40]: > 100 µM (inactive)
GI50 [41]: > 100 µM
GI50 [42]: > 100 µM (inactive)
GI50 [43]: > 100 µM (inactive)
GI50 [44]: > 100 µM (inactive)
GI50 [45]: > 100 µM (inactive)
GI50 [46]: > 100 µM (inactive)
GI50 [47]: > 100 µM (inactive)
GI50 [48]: > 100 µM (inactive)
GI50 [49]: > 100 µM (inactive)
GI50 [50]: > 100 µM (inactive)
GI50 [51]: > 100 µM (inactive)
GI50 [52]: > 100 µM (inactive)

N/C1=C/C(=O)NC(=O)c2c(c3ccccc3oc2=O)C1
GI50 [1]: > 100 µM (inactive)
GI50 [53]: > 100 µM (inactive)
GI50 [2]: > 100 µM (inactive)
GI50 [4]: > 100 µM (inactive)
GI50 [5]: > 100 µM (inactive)
GI50 [6]: > 100 µM (inactive)
GI50 [7]: > 100 µM (inactive)
GI50 [8]: > 100 µM (inactive)
GI50 [9]: > 100 µM (inactive)
GI50 [11]: > 100 µM (inactive)
GI50 [12]: > 100 µM (inactive)
GI50 [13]: > 100 µM (inactive)
GI50 [14]: 46.7 µM (inactive)
GI50 [15]: > 100 µM (inactive)
GI50 [16]: > 100 µM (inactive)
GI50 [17]: > 100 µM (inactive)
GI50 [18]: > 100 µM (inactive)
GI50 [54]: > 100 µM (inactive)
GI50 [20]: > 100 µM (inactive)
GI50 [21]: > 100 µM (inactive)
GI50 [55]: > 100 µM (inactive)
GI50 [22]: > 100 µM (inactive)
GI50 [23]: > 100 µM (inactive)
GI50 [24]: > 100 µM (inactive)
GI50 [25]: > 100 µM (inactive)
GI50 [56]: > 100 µM (inactive)
GI50 [26]: > 100 µM (inactive)
GI50 [27]: > 100 µM (inactive)
GI50 [28]: > 100 µM (inactive)
GI50 [29]: > 100 µM (inactive)
GI50 [30]: > 100 µM (inactive)
GI50 [31]: > 100 µM (inactive)
GI50 [32]: 62.8 µM (inactive)
GI50 [33]: > 100 µM (inactive)
GI50 [34]: > 100 µM (inactive)
GI50 [35]: > 100 µM (inactive)
GI50 [36]: > 100 µM (inactive)
GI50 [37]: > 100 µM (inactive)
GI50 [38]: > 100 µM (inactive)
GI50 [39]: > 100 µM (inactive)
GI50 [40]: > 100 µM (inactive)
GI50 [41]: > 100 µM
GI50 [57]: > 100 µM (inactive)
GI50 [58]: > 100 µM (inactive)
GI50 [59]: > 100 µM (inactive)
GI50 [42]: > 100 µM (inactive)
GI50 [43]: > 100 µM (inactive)
GI50 [44]: > 100 µM (inactive)
GI50 [45]: > 100 µM (inactive)
GI50 [47]: > 100 µM (inactive)
GI50 [48]: > 100 µM (inactive)
GI50 [49]: > 100 µM (inactive)
GI50 [50]: > 100 µM (inactive)
GI50 [51]: > 100 µM (inactive)

C=C1C(=O)O[C@@H]2O[C@@]3(C)CC[C@H]4[C@H](C)CC[C@@H]1[C@@]24O3 [DEOXYARTEMISITENE]
GI50 [2]: 10.8 µM (inactive)
GI50 [3]: 19.1 µM (inactive)
GI50 [4]: 4.19 µM (inactive)
GI50 [5]: 3.47 µM (inactive)
GI50 [6]: 15.7 µM (inactive)
GI50 [7]: 34.8 µM (inactive)
GI50 [8]: 13.6 µM (inactive)
GI50 [9]: 7.46 µM (inactive)
GI50 [10]: 5.52 µM (inactive)
GI50 [11]: 39 µM (inactive)
GI50 [12]: 13.6 µM (inactive)
GI50 [13]: 24.9 µM (inactive)
GI50 [14]: 13.3 µM (inactive)
GI50 [15]: 15.8 µM (inactive)
GI50 [16]: 43.4 µM (inactive)
GI50 [17]: 3.56 µM (inactive)
GI50 [18]: 9.08 µM (inactive)
GI50 [19]: 36.1 µM (inactive)
GI50 [54]: 34.6 µM (inactive)
GI50 [20]: 18.9 µM (inactive)
GI50 [21]: 6.58 µM (inactive)
GI50 [55]: 2.63 µM (inactive)
GI50 [22]: 13.7 µM (inactive)
GI50 [23]: 49.5 µM (inactive)
GI50 [24]: 28.1 µM (inactive)
GI50 [25]: 40 µM (inactive)
GI50 [56]: 14.4 µM (inactive)
GI50 [26]: 17.8 µM (inactive)
GI50 [27]: 29.2 µM (inactive)
GI50 [28]: 25.9 µM (inactive)
GI50 [29]: 21.9 µM (inactive)
GI50 [30]: 15.9 µM (inactive)
GI50 [31]: 22.3 µM (inactive)
GI50 [32]: 6.37 µM (inactive)
GI50 [33]: 19 µM (inactive)
GI50 [34]: 3.38 µM (inactive)
GI50 [35]: 19.5 µM (inactive)
GI50 [36]: 18.2 µM (inactive)
GI50 [37]: 40.6 µM (inactive)
GI50 [38]: 15.2 µM (inactive)
GI50 [39]: 47.2 µM (inactive)
GI50 [40]: 19.3 µM (inactive)
GI50 [41]: 10.9 µM
GI50 [57]: 13 µM (inactive)
GI50 [58]: 12.9 µM (inactive)
GI50 [59]: 3.49 µM (inactive)
GI50 [42]: 7.18 µM (inactive)
GI50 [43]: 11.9 µM (inactive)
GI50 [44]: 14.2 µM (inactive)
GI50 [45]: 22.2 µM (inactive)
GI50 [46]: 27.1 µM (inactive)
GI50 [47]: 11.3 µM (inactive)
GI50 [49]: 15.5 µM (inactive)
GI50 [50]: 16.1 µM (inactive)
GI50 [51]: 38.5 µM (inactive)
GI50 [52]: 11 µM (inactive)
